# According to US20070212677A1, “Identifying off-target effects and hidden phenotypes of drugs in human cells” (Odyssey Thera, Inc., priority 2004, published 2007):
# Entries after “also recorded” stand apart in the source; their conditions may differ. Non-standard residues stand in square brackets, D forms with d. Residues, ends and D or L forms follow the SMILES beside them. Nle = CCCC[C@H](N)C(=O)O
# Assays:
# Akt1:Pdk1 = Akt1:Pdk1 PCA; settings: for Akt:Pdk1 complexes: 90 and 480 minutes after treatment
# Source text: (§4) For example, we monitored drug activity on growth factor-mediated signal transduction pathways involving protein kinase B (Akt) by assessing the complex between Akt1 and phosphatidylinositol-3-dependent kinase (Pdk1). We also monitored complexes containing Akt1 and the cyclin-dependent kinase inhibitor, p27 (CDKN1B; kip1), which reports on cell cycle regulatory processes.
# Akt1:p27 = Akt1:p27 PCA; settings: for Akt:p27 complexes: 90 and 480 minutes after treatment
# Source text: as §4
# cyclinD1:Cdk4 = experiment: CyclinD1:Cdk4 PCA; assay type: cell-based, human; settings: eight hours of treatment
# H-Ras:Raf-1 = H-Ras:Raf-1 PCA; assay type: cell-based, human; settings: drug treatment, HEK293
# beta-Arr2:beta2AR = beta-Arr2:beta2AR (Homo sapiens, UniProt P07550); experiment: beta-Arr2:beta2AR PCA (with or without ISO); assay type: cell-based
# Pin1:Jun = Pin1:Jun PCA; assay type: cell-based, human; settings: for effect on Pin1:Jun assay: statins, FIG. 19B
# phospho-ERK = phospho-ERK (T202/Y204) immunofluorescence, high-content imaging in HEK293 cells; assay type: cell-based, human; settings: for EGF-stimulated ERK phosphorylation: drug 90 min, hEGF during last 5 min
# Experimental: (§1) We assessed the effects of the above-mentioned compounds on the three pathways and used the results to construct pharmacological profiles for the agents. Human cells (HEK293) were treated with drugs and the phosphorylation status of the three downstream proteins was assessed in the absence or presence of epidermal growth factor (EGF). Cells were then fixed and probed with antisera generated against the phosphorylated forms of CREB (S133), ERK1/2 (phospho T*EY*), or phospho Hsp27 (S78/S82). The ERK1/2 antibodies specifically recognize the MAPK/ERK1 and MAPK/ERK2 protein kinases only when they are phosphorylated on Threonine 202 and Tyrosine 204 in the activation loop. […] Changes in the level and sub-cellular localization of a phosphorylated protein following treatment with a drug would indicate a functional connection between the drug and the pathway of interest.
# (§2) Details of the methods used are as follows. HEK293T cells were seeded in black-walled, poly-lysine coated 96-well plates (Greiner) at a density of 30,000/well. After 24 hours, cells in duplicate wells were treated with combinations of different drugs and stimulus as follows: (a) 20 micromolar PD98059, micromolar SB203580, or vehicle alone for 90 minutes; and (b) as for (a), but with 100 ng/ml hEGF added to the cells during the last 5 min of drug treatment. The drugs were purchased from Calbiochem and hEGF was from Roche. Four sets of cells treated as described were prepared. The cells were rinsed once with PBS and fixed with 4% formaldehyde for 10 min. The cells were subsequently permeabilized with 0.25% Triton X-100 in PBS and incubated with 3% BSA for 30 min to block non-specific antibody binding. […]
# (§3) Images were acquired using a Discovery-1 High Content Imaging System (Molecular Devices). Background fluorescence due to nonspecific binding by the secondary antibody was established with the use of cells that were incubated with BSA/PBS and without primary antibodies. […]
# phospho-Hsp27 = phospho-Hsp27 immunofluorescence, high-content imaging in HEK293 cells; assay type: cell-based, human; settings: for EGF-induced Hsp27 phosphorylation: drug 90 min, hEGF during last 5 min
# Experimental: as §1, §2, §3
# phospho-CREB = phospho-CREB (Ser133) immunofluorescence, high-content imaging in HEK293 cells; assay type: cell-based, human
# Experimental: as §1
# Details of the methods used are as follows. HEK293T cells were seeded in black-walled, poly-lysine coated 96-well plates (Greiner) at a density of 30,000/well. […]
# as §3
# PPAR-gamma:SRC-1 = target: T1, PPAR-gamma:SRC-1 (Homo sapiens, UniProt P37231); experiment: PPAR-gamma:SRC-1 PCA; assay type: cell-based; settings: serum-starved HEK293; for effect on PPAR-gamma:SRC-1 PCA: drug 6.5 hours prior to rosiglitazone 1.5 hours, FIG. 24B, C
# T1 sequence (P37231 1-477 isoform P37231-2): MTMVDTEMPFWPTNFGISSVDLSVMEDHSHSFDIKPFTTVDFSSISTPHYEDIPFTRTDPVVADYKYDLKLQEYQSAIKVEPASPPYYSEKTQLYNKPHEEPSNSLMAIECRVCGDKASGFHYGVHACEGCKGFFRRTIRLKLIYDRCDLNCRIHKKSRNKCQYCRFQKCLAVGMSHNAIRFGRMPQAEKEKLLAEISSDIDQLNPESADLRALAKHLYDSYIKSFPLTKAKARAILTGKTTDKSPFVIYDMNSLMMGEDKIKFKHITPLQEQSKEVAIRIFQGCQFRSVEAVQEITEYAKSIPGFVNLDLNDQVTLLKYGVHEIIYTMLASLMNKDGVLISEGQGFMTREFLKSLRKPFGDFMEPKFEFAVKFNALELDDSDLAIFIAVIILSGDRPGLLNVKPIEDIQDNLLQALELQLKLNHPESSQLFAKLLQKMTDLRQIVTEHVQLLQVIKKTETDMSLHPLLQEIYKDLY
# CDKN1A(p21):Cdc2 = experiment: Cdc2:p21 PCA; settings: statins
# MAPK1:MKNK1 = experiment: Mknk1:Mapk1 PCA; settings: 480 minutes; bar 27
# ELK: MAPK1 = experiment: Elk1:Mapk1 PCA; settings: 480 minutes; FIG. 17 bar 20
# Cofilin:Limk2 = Cofilin:Limk2 PCA; settings: drug treatment, HEK293
compound,measurement,setting,value
"C=CCNC1=C2C[C@@H](C)C[C@H](OC)[C@H](O)[C@@H](C)/C=C(\C)[C@H](OC(N)=O)[C@@H](OC)/C=C\C=C(/C)C(=O)NC(=CC1=O)C2=O [17-AAG, 17-(allylamino)-17-demethoxygeldanamycin]",Akt:Pdk1 complexes,Akt1:Pdk1,negatively regulated
same,Akt:p27 complexes,Akt1:p27,negatively regulated
CCCC[C@@H](C=O)NC(=O)[C@H](CC(C)C)NC(=O)[C@H](CC(C)C)NC(C)=O [ALLN] (Ac-Leu-Leu-[Nle]-aldehyde),cyclinD1:Cdk4 complexes,cyclinD1:Cdk4,accumulation of this complex in the nucleus
Cc1ccc(S(=O)(=O)/C=C/C#N)cc1 [BAY 11-7082],total Akt:Pdk1 complexes,Akt1:Pdk1; HEK293,not
same,nuclear Akt:p27 complexes,Akt1:p27; HEK293,strongly inhibited
same,HRas:Raf1 complex,H-Ras:Raf-1,inhibited
CC(C)C[C@H](NC(=O)c1ccc(NCc2cnc[nH]2)cc1-c1cccc2ccccc12)C(=O)O [GGTI-2133],effect on βArr2:β2AR assay following isoproterenol stimulation,"beta-Arr2:beta2AR; FIG. 19A, 2 μM ISO 30 min",no effect
CN(CCOc1ccc(C[C@H](Nc2ccccc2C(=O)c2ccccc2)C(=O)O)cc1)c1ccccn1 [GW1929],effect on Pin1/Jun PCA,"Pin1:Jun; PPARγ ligands, 480 minutes, FIG. 18",strong stimulation; also recorded: had an effect
COc1cccc(-c2cc(=O)c3ccccc3o2)c1N [PD98059],EGF-stimulated ERK phosphorylation,phospho-ERK,significantly blocked
same,EGF-induced Hsp27 phosphorylation,phospho-Hsp27,no effect
same,effect of EGF on phospho-CREB in presence of drug,"phospho-CREB; 20 micromolar PD98059 90 min, hEGF during last 5 min",reduced
same,effect on PPAR-gamma:SRC-1 PCA,PPAR-gamma:SRC-1,no appreciable effects
COc1cc2ncnc(Nc3cccc(Br)c3)c2cc1OC [PD 153035],effect on PPAR-gamma:SRC-1 PCA,PPAR-gamma:SRC-1,no appreciable effects
CC(C)(C)n1nc(-c2ccc(Cl)cc2)c2c(N)ncnc21 [PP2],increase of PPAR-gamma:SRC-1 complex,"PPAR-gamma:SRC-1; drug 10 micromolar 6.5 hours prior to rosiglitazone 1.5 hours, p<0.0001 vs DMSO",5 fold
same,effect on PPAR-gamma:SRC-1 PCA,PPAR-gamma:SRC-1,comparable to c-src siRNA
Nc1ncnc2c1cnn2-c1ccccc1 [PP3],effect on PPAR-gamma:SRC-1 PCA,PPAR-gamma:SRC-1,did not mimic
"C[S+]([O-])c1ccc(-c2nc(-c3ccc(F)cc3)c(-c3ccncc3)[nH]2)cc1 (stereo not drawn) [SB203580, 4-(4-fluorophenyl)-2-(4-methylsulfinylphenyl)-5-(4-pyridyl)1H-imidazole]",EGF-stimulated ERK phosphorylation,phospho-ERK,no effect
same,EGF-induced Hsp27 phosphorylation,phospho-Hsp27,blocked
CC(C)n1c(/C=C/C(O)CC(O)CC(=O)O)c(-c2ccc(F)cc2)c2ccccc21 (stereo not drawn) [fluvastatin],effect on Pin1:Jun assay,Pin1:Jun,pronounced inhibitory activity; also recorded: inhibited
CC(C)c1nc(N(C)S(C)(=O)=O)nc(-c2ccc(F)cc2)c1/C=C/[C@@H](O)C[C@@H](O)CC(=O)O [rosuvastatin],effect on Pin1:Jun assay,Pin1:Jun,little activity
same,activity on CDKN1A(p21):Cdc2 assay,CDKN1A(p21):Cdc2,activity opposite from the other statins
EGF: epidermal growth factor; hEGF from Roche,ERK/MAP kinase phosphorylation,"phospho-ERK; 100 ng/ml hEGF, 5 min",highly induced
same,phospho-Hsp27,"phospho-Hsp27; 100 ng/ml hEGF, 5 min",increased
same,formation of phospho-CREB,"phospho-CREB; 100 ng/ml hEGF, 5 min",induced
"TRAIL: protein cytokine, a TNF-alpha-family ligand",MAPK1:MKNK1 assay,MAPK1:MKNK1,strongly induced
same,activity on adrenergic GPCR assays,"beta-Arr2:beta2AR; 480 minutes, FIG. 17 bars 3 & 4",no activity
same,ELK: MAPK1 assay,ELK: MAPK1,strongly induced
indirubin-3′-monoxime,Akt:Pdk1 complexes,Akt1:Pdk1,negatively regulated
same,Akt:p27 complexes,Akt1:p27,negatively regulated
same,Limk2:cofilin complexes,Cofilin:Limk2,almost completely eliminated
